Entries after “also recorded” stand apart in the source; their conditions may differ.

Holding throughout (type): cell-based
Assay [1] concerns human peripheral blood neutrophils. Put plainly: NET detection in fixed neutrophils by fluorescence microscopy (Sytox Green, nuclear morphology). As to conditions: 4 hours of culture, plate-bound human polyvalent Ig (coating solution 100 μg/mL) or PMA (25 nM) in culture medium. As for the experimental part:
Human polyvalent immunoglobulins (or human polyvalent Ig) also referred to as intravenous immunoglobulin or IVIg (Privigen, CSL Behring LLC) or human serum albumin or HSA (Sigma Aldrich—reference: H5667), used as negative control, diluted in coating solution (DPBS Gibco—reference: 14190) were allowed to adsorb for 2 hours at room temperature on high-binding, sterile 96-well plates suitable for fluorescence microscopy (Greiner Bio-One, Frickenhausen, Germany). Unless indicated otherwise, deposits of human polyvalent Ig were obtained with a coating solution (DPBS no calcium, no magnesium (ThermoFisher—reference: 14190) consisting of KCl 2.67 mM, KH2PO4 1.47 mM, NaCl 137.9 mM, Na2HPO4-7H2O 8.06 mM) comprising human polyvalent Ig at a concentration of 100 μg/mL. Similarly, unless indicated otherwise, deposits of HSA were obtained with a coating solution comprising HSA at a concentration of 100 μg/mL. Phorbol-12-myristate-13-acetate or PMA (Sigma Aldrich—reference: P8139) was used as positive control. PMA was added to the culture medium at a final concentration of nM. In some experiments (see FIG. 5A), human polyvalent Ig were added in the culture medium at a final concentration ranging from 3 to 300 μg/mL. […]
Images were acquired by fluorescence microscopy in the green channel. […]

Assay [2] has the same test system. Put plainly: NET formation by live cell fluorescent microscopy (Sytox Green) with computer-assisted image analysis. As for the experimental part:
Human polyvalent immunoglobulins (or human polyvalent Ig) also referred to as intravenous immunoglobulin or IVIg (Privigen, CSL Behring LLC) or human serum albumin or HSA (Sigma Aldrich—reference: H5667), used as negative control, diluted in coating solution (DPBS Gibco—reference: 14190) were allowed to adsorb for 2 hours at room temperature on high-binding, sterile 96-well plates suitable for fluorescence microscopy (Greiner Bio-One, Frickenhausen, Germany). Unless indicated otherwise, deposits of human polyvalent Ig were obtained with a coating solution (DPBS no calcium, no magnesium (ThermoFisher—reference: 14190) consisting of KCl 2.67 mM, KH2PO4 1.47 mM, NaCl 137.9 mM, Na2HPO4-7H2O 8.06 mM) comprising human polyvalent Ig at a concentration of 100 μg/mL. Similarly, unless indicated otherwise, deposits of HSA were obtained with a coating solution comprising HSA at a concentration of 100 μg/mL. Phorbol-12-myristate-13-acetate or PMA (Sigma Aldrich—reference: P8139) was used as positive control. PMA was added to the culture medium at a final concentration of nM. In some experiments (see FIG. 5A), human polyvalent Ig were added in the culture medium at a final concentration ranging from 3 to 300 μg/mL.
(§1) Neutrophils were isolated from the peripheral blood of healthy human donors by negative magnetic bead selection using a commercially available kit (STEMCELL Technologies—reference: 19666). Isolated neutrophils were then distributed in 96-well plates (Greiner Bio-One, Frickenhausen, Germany), in particular in 96-well plates coated with human polyvalent Ig or HSA as described above, at a concentration of 7.5×10^4 cells per well, corresponding to 10^6 cells/mL of culture medium. Neutrophils were then cultured in HBSS with calcium and magnesium (Gibco—reference: 24020-091) under standard conditions (i.e., humidified incubator 37° C. and 5% CO2). […]
(§2) High-binding, sterile 96-well plates (Greiner Bio-One, Frickenhausen, Germany) were coated with human polyvalent Ig as described in Example 1, using a coating solution comprising human polyvalent Ig at a concentration ranging from 3 to 300 μg/mL, as indicated. If no indication is given, deposits of human polyvalent Ig were obtained with a coating solution comprising human polyvalent Ig at a concentration of 100 μg/mL.
(§3) Where indicated, the SYK inhibitor BAY-61-3606, obtained from Selleckchem (reference: S7006), was added to the culture medium at a final concentration ranging from 0.05 to 5 (0.05, 0.1, 0.5, 1, 5 as indicated). Where indicated, the calcineurin inhibitor FK506 (also known as tacrolimus), obtained from ASTELLAS PHARMA (PROGRAF™ 5 mg/ml), was added to the culture medium at a final concentration ranging from 0.3 to 100 nM (0.3, 1, 3, 10, 30, 100 nM, as indicated). Where indicated, the humanized monoclonal antibody motavizumab directed against the respiratory syncytial virus (RSV), produced as a human IgG4 (by Evitria, Zurich, Switzerland), was added to the culture medium at a final concentration ranging from 1 to 100 μg/mL (1, 3, 10, 30, 100 μg/mL, as indicated). Human IgG4 can engage FcRI (CD64) and enhance the activation of human neutrophils triggered by immobilized immunoglobulins, which is mediated by FcRIIa and FcRIIIb, by the engagement of an additional signaling pathway.
Human peripheral blood neutrophils were isolated and cultured as described in Example 1. In particular, freshly isolated peripheral blood neutrophils were distributed in coated plate as described in Example 1 (7.5×10^4 cells per well, corresponding to 10^6 cells/mL of culture medium) and cultured for the indicated time.
The fluorescent, cell-impermeant, nucleic acid dye Sytox Green was added to the culture medium at a concentration of 1 μM to detect NET formation. ROS (reactive oxygen species) formation was identified by the use of a fluorescent oxidative-sensitive probe (CM-H2DCFDA, ThermoFisher Scientific—reference: C6827). […]

Assay [3] has the same test system. The assay can be described thus: ROS formation with the oxidative-sensitive fluorescent probe CM-H2DCFDA, live cell imaging. As to conditions: inhibitor 0 to 5 μM; plates coated with 100 μg/mL human polyvalent Ig; 6 hours. As for the experimental part: as §2
as §3, with “Human IgG4 can engage FcRI (CD64) and enhance the activation of human neutrophils triggered by immobilized immunoglobulins, which is mediated by FcRIIa and FcRIIIb, by the engagement of an additional signaling pathway.” left out
Time-lapse images were acquired by live cell fluorescent microscopy. Quantitative time-course measure of ROS and NET formation was performed by computer-assisted image analysis (data are expressed as GCU/well).

The test system of assay [4] is human peripheral blood eosinophils. Put plainly: EET formation by eosinophils, live cell fluorescent microscopy (Sytox Green). As to conditions: 5 μM inhibitor; 100 μg/mL of human polyvalent Ig. As to the method: High-binding, sterile 96-well plates (Greiner Bio-One, Frickenhausen, Germany) were coated with human polyvalent Ig as described in Example 1, using a coating solution comprising human polyvalent Ig at a concentration ranging from 10 to 300 μg/mL, as indicated.
Where indicated, the SYK inhibitor BAY-61-3606, obtained from Selleckchem (reference: S7006), was added to the culture medium at a final concentration of 5 μM.
as §1, with “Eosinophils” for “Neutrophils”, “19656).” for “19666).”, “eosinophils” for “neutrophils”, “bovine serum albumin (negative control)” for “HSA”, “1.5×10^4” for “7.5×10^4”, “2×10^5” for “10^6”
Time-lapse images were acquired by live cell fluorescent microscopy. Quantitative time-course measure of EET formation was performed by computer-assisted image analysis (data are expressed as GCU/well).

The subject of assay [5] is human peripheral whole blood. The assay can be described thus: ET formation in diluted whole blood, live cell fluorescent microscopy (Sytox Green). As to conditions: 5 μM inhibitor; 20 μg/mL of human polyvalent Ig; whole blood 1/10 dilution. As for the experimental part:
High-binding, sterile 96-well plates (Greiner Bio-One, Frickenhausen, Germany) were coated with human polyvalent Ig as described in Example 1, using a coating solution comprising human polyvalent Ig at a concentration ranging from 10 to 80 μg/mL, as indicated.
Where indicated, the SYK inhibitor BAY-61-3606, obtained from Selleckchem (reference: S7006), was added to the whole blood samples diluted in culture medium at a final concentration of 5 μM.
Fresh human peripheral whole blood was collected from healthy donors and diluted ten times (1/10 dilution) in culture medium containing cell-impermeant, nucleic acid dye Sytox Green at a concentration of 1 μM to detect ET formation. Diluted whole blood was then distributed in 96-well plates (Greiner Bio-One, Frickenhausen, Germany), in particular in 96-well plates coated with human polyvalent Ig or bovine serum albumin (negative control) as described above.
Time-lapse images were acquired by live cell fluorescent microscopy. Quantitative time-course measure of ET formation was performed by computer-assisted image analysis (data are expressed as GCU/well).

[6] abbreviates: 24-hour live imaging, plate-bound human polyvalent Ig (coating solution 100 μg/mL) or PMA 25 nM.

For `CCCCCCCCCCCCCC(=O)O[C@@H]1[C@@H](C)[C@@]2(O)[C@@H](C=C(CO)C[C@]3(O)C(=O)C(C)=C[C@@H]23)[C@@H]2C(C)(C)[C@]12OC(C)=O` [PMA, phorbol 12-myristate 13-acetate], the “NET formation (nuclear morphology of neutrophils)” value in assay [1] was “most neutrophils displayed signs of NETosis”. Besides, in assay [2] (setting [6]), the “NET formation rate change” value is “causes NET formation from all neutrophils at once” and the “NET formation time course” value was “NET induction was visible on almost all neutrophils from 3-hour culture; also recorded: drives the simultaneous formation of NETs from a great number of neutrophils, within as soon as 3 hours of culture”.

Take `COc1ccc(-c2cc3nccn3c(Nc3ncccc3C(N)=O)n2)cc1OC` [BAY-61-3606]: in assay [2] (inhibitor 0 to 5 μM, plates coated with 100 μg/mL human polyvalent Ig, 6 hours), the “NET formation induced by immobilized human polyvalent Ig” value is on record as “decreased”. The “NET formation elicited by motavizumab plus immobilized human polyvalent Ig” value in assay [2] (inhibitor at a concentration of 5, 100 μg/mL motavizumab and immobilized human polyvalent Ig (100 μg/mL coating)) is “completely abolishes the NET formation”. In addition, the “ROS production induced by immobilized human polyvalent Ig” value in assay [3] is given as “decreased”. For the same molecule, in assay [4], the “EET formation induced by immobilized human polyvalent Ig” value is “no EET formation”. Further, the “ET formation induced by immobilized human polyvalent Ig” value in assay [5] is on record as “no ET formation”.

B1: motavizumab: humanized monoclonal antibody directed against the respiratory syncytial virus (RSV), produced as a human IgG4 (antibody, chains of the INN, looked up, V domains shown)
VH: QVTLRESGPALVKPTQTLTLTCTFSGFSLSTAGMSVGWIRQPPGKALEWLADIWWDDKKHYNPSLKDRLTISKDTSKNQVVLKVTNMDPADTATYYCARDMIFNFYFDVWGQGTTVTVSS
VL: DIQMTQSPSTLSASVGDRVTITCSASSRVGYMHWYQQKPGKAPKLLIYDTSKLASGVPSRFSGSGSGTEFTLTISSLQPDDFATYYCFQGSGYPFTFGGGTKVEIK
modifications: IgG4
notes: humanized monoclonal antibody directed against the respiratory syncytial virus (RSV), produced as a human IgG4
B1: in assay [2] (antibody 0 to 100 μg/mL in culture medium, plates coated with 100 μg/mL human polyvalent Ig, compared to coated IVIG without motavizumab), the “NET formation in presence of immobilized human polyvalent Ig” value was “drives a proportional increase in the formation of NETs”. Besides, in assay [2] (antibody 0 to 100 μg/mL in culture medium, uncoated 96-well plates), the “NET formation in absence of immobilized immunoglobulins” value is given as “is not able to drive the formation of NETs”.

Values taken from patent US20230288403A1, “METHOD FOR INDUCING EXTRACELLULAR TRAP (ET) FORMATION” (Tridek-One Therapeutics, priority 2022, published 2023).
